This is an account of results in patent US8937176B2, “Compounds” (Boehringer Ingelheim International GmbH, priority 2011, dated 2015).

T1 sequence (P41594 21-1212): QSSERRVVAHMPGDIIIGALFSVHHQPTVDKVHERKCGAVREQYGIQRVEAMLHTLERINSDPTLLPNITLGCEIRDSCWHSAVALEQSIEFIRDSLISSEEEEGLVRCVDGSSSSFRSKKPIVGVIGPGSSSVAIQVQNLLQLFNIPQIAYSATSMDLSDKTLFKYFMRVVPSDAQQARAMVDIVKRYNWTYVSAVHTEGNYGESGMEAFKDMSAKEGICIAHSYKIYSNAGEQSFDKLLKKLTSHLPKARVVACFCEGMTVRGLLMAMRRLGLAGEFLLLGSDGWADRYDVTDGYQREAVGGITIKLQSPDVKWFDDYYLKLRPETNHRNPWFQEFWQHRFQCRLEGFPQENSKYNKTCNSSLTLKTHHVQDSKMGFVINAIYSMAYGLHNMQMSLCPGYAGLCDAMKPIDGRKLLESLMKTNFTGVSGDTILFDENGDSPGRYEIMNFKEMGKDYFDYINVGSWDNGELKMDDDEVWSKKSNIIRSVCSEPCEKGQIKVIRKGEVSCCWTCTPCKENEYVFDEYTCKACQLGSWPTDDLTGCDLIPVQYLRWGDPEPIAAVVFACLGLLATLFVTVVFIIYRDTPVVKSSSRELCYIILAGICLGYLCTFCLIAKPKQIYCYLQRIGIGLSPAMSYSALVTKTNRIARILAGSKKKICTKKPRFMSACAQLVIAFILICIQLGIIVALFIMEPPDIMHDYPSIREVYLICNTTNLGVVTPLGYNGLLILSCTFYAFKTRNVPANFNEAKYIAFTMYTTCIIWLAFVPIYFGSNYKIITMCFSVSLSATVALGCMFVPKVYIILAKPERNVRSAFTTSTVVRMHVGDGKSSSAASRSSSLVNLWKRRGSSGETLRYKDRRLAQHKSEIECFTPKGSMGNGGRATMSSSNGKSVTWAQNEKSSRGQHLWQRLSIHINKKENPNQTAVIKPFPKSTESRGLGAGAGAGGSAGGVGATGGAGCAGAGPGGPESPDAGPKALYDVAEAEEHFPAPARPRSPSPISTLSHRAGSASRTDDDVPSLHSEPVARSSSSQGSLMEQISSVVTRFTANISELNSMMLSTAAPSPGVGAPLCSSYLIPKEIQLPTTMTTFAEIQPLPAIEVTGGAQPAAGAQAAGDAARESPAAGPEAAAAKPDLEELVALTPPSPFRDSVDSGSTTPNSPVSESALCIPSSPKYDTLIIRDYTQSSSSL

The experiment concerns the target T1, human recombinant mGluR5 (Homo sapiens, UniProt P41594).
T1 construct: expressed in transfected cells; host or cells: HEK 293 cell line
Put plainly: Positive modulation of mGluR5, calcium based FLIPR assay in HEK 293 cells. The conditions noted are these: EC50 of the modulation; HEK 293 cell line expressing human recombinant mGluR5; glutamate at approximately 5% basal stimulation; peak height of Ca release fluorescence signal. The method, then:
The positive modulation of mGluR5 is measured in a HEK 293 cell line expressing human recombinant mGluR5 and is detected with calcium based FLIPR assay. The cells are cultured with DMEM supplemented with 10% FCS, 2 μg/mL tetracycline, 100 μg/mL hygromycin and 500 μg/mL gneticin. The cell culture media is exchanged for tetracycline-free cell culture media 3-7 days before the assay. One day before the assay the cell culture medium is exchanged to DMEM without glutamine and phenol red and supplemented with 10% FCS, 100 μg/mL hygromycin and 500 μg/mL geneticin. On the assay day, the medium of the subconfluent cultures is removed and the cells are detached by addition of 2.5 ml EDTA(0.02%) per 175 cm2 culture flask for 1 minute. The cells are resuspend in Ringer solution (140 mM NaCl, 5 mM KCl, 2.5 mM CaCl2, 1.5 mM MgCl2, 5 mM Glucose, 10 mM Hepes; adjusted to pH 7.4 with NaOH), pooled and Ringer solution added to adjust the volume to 50 mL. The cell suspension is centrifuged for […] at 1500 U/min (425 g). The supernatant is removed and the cells washed a second time with 50 ml fresh Ringer solution and centrifuged again as before. The supernatant is again removed and the pellet resuspended in Ringer solution to 1,000,000 cells/ml (1×10^6 cells/mL). The cells are plated onto BD BioCoat Poly-D-Lysine 384 well plates (20.000 cells/well; 20 μl/well). The lid covered plates are then incubated until use at 37° C./10% CO2. For dye loading, 20 μl of Calcium-4 assay kit solution (prepared according to the manufacturer's description in Ringer solution) are added to the cells and the plates are incubated for 80 min 37° C. and then 10 min at room temperature.
Controls, Compound Dilution and Assay Execution:
Each assay plate contained wells with “high” and “low” controls:
Low controls 1% DMSO/ringer solution+basal glutamate activation (defined as 100% CTL).
High controls 10 μM CDPPB+basal glutamate activation (defined as 200% CTL).
Test compounds are dissolved and diluted in DMSO to 100-fold the desired concentrations. In a second step, the compounds are diluted in Ringer solution such that the compounds are 4-fold more concentrated than the desired final assay concentration. The final DMSO concentration was 1%.
20 μl of each compound solution are then transferred to the assay plate and the Ca2+ kinetic is measured to determine any intrinsic compound activity. After 5 min incubation in the FLIPR device, the second stimulation with 20 μl of glutamate in Ringer solution (glutamate concentration adjusted to approximately 5% basal stimulation of the maximal possible glutamate effect) is added and the kinetic Ca2+ response of the wells was measured for the modulation effect.
The peak height of the Ca release related fluorescence signal (9-66) is used for the EC50. The EC50 of the modulation is calculated over a nonlinear regression with GraphPad Prism (Table 1).
`Cc1cc(-c2cn(-c3ccccc3)c(CC(=O)N3CCN(c4ccccn4)CC3)n2)ccc1F` [Example 7.04.42.]: the EC50 is 24 nM.
As to `COc1cc(N2CCN(C(=O)Cc3nc(-c4ccc(F)c(C)c4)cn3-c3ccccc3)CC2)ncn1` [Example 7.04.43.], the EC50 was found to be 19 nM.
The same measure for `Cc1cc(-c2cn(-c3ccccc3)c(CC(=O)N3CCN(c4ncccn4)CC3)n2)ccc1F` [Example 7.04.44.]: 11 nM; for `COc1ccnc(N2CCN(C(=O)Cc3nc(-c4ccc(F)c(C)c4)cn3-c3ccccc3)CC2)c1` [Example 7.04.45.]: 28 nM; for `COc1cnc(N2CCN(C(=O)Cc3nc(-c4ccc(F)c(C)c4)cn3-c3ccccc3)CC2)nc1` [Example 7.04.46.]: 21 nM.
Take `CCn1cc(-c2ccc(F)c(C)c2)nc1CC(=O)N1CCN(c2ncccn2)CC1` [Example 7.05.01, 2-(1-Ethyl-4-(4-fluoro-3-methyl-phenyl)-1H-imidazol-2-yl)-1-(4-pyrimidin-2-yl-piperazin-1-yl)-ethanone]: the EC50 stood at 174 nM.

What is called EC50 is the concentration giving half of the maximal effect.
